Results on six compounds are retold here after PMC10962542, “Inhibition of Aurora‐A/N‐Myc Protein–Protein Interaction Using Peptidomimetics: Understanding the Role of Peptide Cyclization” (Chembiochem, 2023).

A short description of data set [1]: circular dichroism (CD) spectroscopy. It counts as physicochemical. The following applies: 150 mM NaCl, 5 mM MgCl2, pH 7.5, 5 °C, n=2, free‐thiol (red) samples with 5 mol equivalents TCEP; for MRE222 (mean residue ellipticity at 222 nm): 25 mM Tris, mean ± SD, SD; for % Helicity (estimated): from MRE222 by equation 7, 25 mM Tris. The method, then: Circular dichroism (CD): All samples were prepared in Tris buffer (25 mM Tris, 150 mM NaCl, 5 mM MgCl2, pH 7.5) with the exception of free sulfhydryl peptides, to which Tris(2‐carboxyethyl)phosphine (TCEP; 5 mol eq. relative to the peptide) was added. CD spectra were recorded using an APP Chirascan CD spectropolarimeter and 1 mm pathlength quartz cuvettes. Sample concentrations were typically 30–120 μM, as determined by UV−V absorption based on a tryptophan extinction coefficient of 5600 M^−1 cm^−1 and, for mal‐constrained variants, a maleimide coefficient of 1700 M^−1 cm^−1.[16, 32] […] Spectra were recorded in duplicate at 5 °C, over wavelengths ranging from 290 to 180 nm, with data collected every 1 nm (1 nm s^−1). A background spectrum for CD buffer alone was also recorded and background ellipticity values were subtracted from raw sample ellipticity values (θ) when calculating mean residue ellipticities (MREs) using Equation 6: (6) MRE=(θλ-θ0)xMw/nxlxc
Where [θ]λ is the observed ellipticity at a given wavelength λ in mdeg, [θ]0 is the ellipticity observed for the buffer, Mw =molar weight of the peptide in g mol^−1, n=number of residues; c=sample concentration (mg mL^−1); l=pathlength of the cuvette in mm. Estimates of peptide % helicity were made using Equation 7, [33] (7) %helicity=(MRE222-MREcoil)x100/-425001-3/n
where MRE222 is the MRE value at 222 nm, MREcoil=640‐45T (with T in °C)=415 deg cm^2 dmol^−1 res^−1 at 5 °C, and n is the number of backbone amide bonds including the N‐terminal acetyl.

Data set [2] concerns the target T1, N‐Myc/Aurora‐A interaction (Aurora‐A122‐403‐C290A/C393A) (Homo sapiens, UniProt O14965, C290A/C393A).
T1 construct: Aurora‐A 122‐403‐C290A/C393A protein was produced as described previously; made in house
T1 sequence (O14965 122-403 C290A/C393A): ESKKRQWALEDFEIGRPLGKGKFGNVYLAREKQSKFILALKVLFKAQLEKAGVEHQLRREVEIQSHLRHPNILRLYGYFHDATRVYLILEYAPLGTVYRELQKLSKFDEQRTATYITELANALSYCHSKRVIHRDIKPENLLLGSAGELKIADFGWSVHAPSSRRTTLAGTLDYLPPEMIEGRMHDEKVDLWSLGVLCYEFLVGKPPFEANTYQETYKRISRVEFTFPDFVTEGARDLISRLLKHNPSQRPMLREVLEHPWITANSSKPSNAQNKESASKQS
Briefly: competition fluorescence anisotropy (FA) assay against fluorescein labelled N‐Myc61‐89. Note: equilibrated 2 h at room temperature. It counts as binding. The method, then: Fluorescence anisotropy (FA) assays: All assays were performed using 384‐well plates (Greiner Bio‐one, UK). […] All samples were prepared in 25 mM Tris, 150 mM NaCl, 5 mM MgCl2, pH 7.5, and tested in triplicate using an EnVisionTM 2103 MultiLabel plate reader (Perkin Elmer; Waltham, MA, USA). The parameters were set as follows: Excitation wavelength=480 nm (30 nm bandwidth) and emission wavelength=535 nm (30 nm bandwidth). Measured data were processed and analysed as previously described.[31] Specifically, the perpendicular intensity (P) and parallel intensity (S) were subtracted by the control values and used for calculations of intensity and anisotropy using the following Equations 1, 2, 3, 4, and 5: (1) I=2PG+S (2) r=S-PG (3) Lb=r-rmin/λrmax-r+r-rmin (4) [drawing 1] (5) y=rmax+rmin-rmax/1+(x/x0)^p
For competition FA assays, the average anisotropy and the average standard deviation of the values derived from equation (2) were calculated and fit to a sigmoidal logistic model (equation (5)) using Origin 2021. […] Results are reported as IC50±SD, with data points representing the mean of three replicates and error bars indicating the corresponding SD. Where applicable, ΔΔG was determined as follows: ΔΔG=−RT ln (ΔIC50).
For orientation: In fluorescence polarisation assays a small probe gives low polarisation when free and higher when bound to something large.

Like-named read-outs stand apart in the source and are kept apart here. *1 amine or outer side, *2 acyl side, *3 side chain or, on linkers, in order; H or OH if unused. Where a SMILES comes first, the peptide text is derived from it. Bridges are numbered along the chain shown (N, C = ends). Maleimide(3,4-diyl) = O=C1NC(=O)C([*:2])=C1[*:1]

The term IC50 denotes the point on the concentration scale where inhibition reaches its midpoint. Read a high IC50 as lower potency. As to `CSCC[C@H](NC(=O)[C@H](CCC(=O)O)NC(=O)[C@@H](NC(=O)[C@@H](NC(=O)[C@H](Cc1c[nH]c2ccccc12)NC(=O)[C@H](CO)NC(=O)[C@@H]1CCCN1C(=O)[C@@H]1CCCN1C(=O)[C@H](CCC(=O)O)NC(=O)[C@H](CO)NC(=O)[C@H](CO)NC(=O)[C@H](Cc1c[nH]cn1)NC(=O)[C@H](CCC(=O)O)NC(=O)[C@H](C)NC(=O)[C@H](Cc1ccccc1)NC(=O)CNC(=O)[C@H](CCCNC(=N)N)NC(=O)[C@H](CO)NC(=O)[C@@H]1CCCN1C(=O)[C@H](CO)NC(=O)[C@H](CC(C)C)NC(C)=O)C(C)C)[C@@H](C)O)C(=O)N[C@@H](CS)C(=O)N[C@@H](CC(C)C)C(=O)N[C@@H](CCC(=O)O)C(=O)N[C@@H](CC(N)=O)C(=O)N[C@@H](CS)C(=O)N[C@@H](CC(C)C)C(=O)N[C@@H](Cc1c[nH]c2ccccc12)C(=O)NCC(N)=O` [N-Myc 61-89L82C/E86C red] (Ac-LSPSRGFAEHSSEPPSWVTEMCLENCLWG-NH2), in data set [1], the “MRE222 (mean residue ellipticity at 222 nm)” value (“MRE222” below) is reported as -2348 ± 49 deg cm^−1 dmol^−1 res^−1 and the “% Helicity (estimated)” value is 7 ± 1%. In addition, the IC50 in data set [2] (SD) turned out to be 120 ± 14 µM.

With `CSCC[C@@H]1NC(=O)[C@H](CCC(=O)O)NC(=O)[C@H]([C@@H](C)O)NC(=O)[C@@H](NC(=O)[C@H](Cc2c[nH]c3ccccc23)NC(=O)[C@H](CO)NC(=O)[C@@H]2CCCN2C(=O)[C@@H]2CCCN2C(=O)[C@H](CCC(=O)O)NC(=O)[C@H](CO)NC(=O)[C@H](CO)NC(=O)[C@H](Cc2c[nH]cn2)NC(=O)[C@H](CCC(=O)O)NC(=O)[C@H](C)NC(=O)[C@H](Cc2ccccc2)NC(=O)CNC(=O)[C@H](CCCNC(=N)N)NC(=O)[C@H](CO)NC(=O)[C@@H]2CCCN2C(=O)[C@H](CO)NC(=O)[C@H](CC(C)C)NC(C)=O)CSC2=C(SC[C@@H](C(=O)N[C@@H](CC(C)C)C(=O)N[C@@H](CCC(=O)O)C(=O)N[C@@H](CC(N)=O)C(=O)N[C@@H](CCC(=O)O)C(=O)N[C@@H](CC(C)C)C(=O)N[C@@H](Cc3c[nH]c4ccccc34)C(=O)NCC(N)=O)NC1=O)C(=O)NC2=O` [N-Myc 61-89 V78C/L82C mal] (Ac-LSPSRGFAEHSSEPPSWCTEMCLENELWG-NH2; linker 18-22 via Maleimide(3,4-diyl)), in data set [1], the “MRE222” value is given as -1767 ± 72 deg cm^−1 dmol^−1 res^−1 and the “% Helicity (estimated)” value was 6 ± 1%. In addition, the IC50 in data set [2] was ≥ 500 µM.

Consider `CSCC[C@H](NC(=O)[C@H](CCC(=O)O)NC(=O)[C@@H](NC(=O)[C@@H](NC(=O)[C@H](Cc1c[nH]c2ccccc12)NC(=O)[C@H](CO)NC(=O)[C@@H]1CCCN1C(=O)[C@@H]1CCCN1C(=O)[C@H](CCC(=O)O)NC(=O)[C@H](CO)NC(=O)[C@H](CO)NC(=O)[C@H](Cc1c[nH]cn1)NC(=O)[C@H](CCC(=O)O)NC(=O)[C@H](C)NC(=O)[C@H](Cc1ccccc1)NC(=O)CNC(=O)[C@H](CCCNC(=N)N)NC(=O)[C@H](CO)NC(=O)[C@@H]1CCCN1C(=O)[C@H](CO)NC(=O)[C@H](CC(C)C)NC(C)=O)C(C)C)[C@@H](C)O)C(=O)N[C@@H](CC(C)C)C(=O)N[C@H]1CSSC[C@@H](C(=O)N[C@@H](Cc2c[nH]c3ccccc23)C(=O)NCC(N)=O)NC(=O)[C@H](CCC(=O)O)NC(=O)[C@H](CC(N)=O)NC(=O)[C@H](CCC(=O)O)NC1=O` [N-Myc 61-89L83C/L87C ox] (Ac-LSPSRGFAEHSSEPPSWVTEMLCENECWG-NH2; disulfide 23-27), for which, in data set [1], the “MRE222” value is on record as -2223 ± 37 deg cm^−1 dmol^−1 res^−1 and the “% Helicity (estimated)” value was 7 ± 1%. In data set [2] (SD), the IC50 came out at 103 ± 11 µM.

On to `CSCC[C@H](NC(=O)[C@H](CS)NC(=O)[C@@H](NC(=O)[C@@H](NC(=O)[C@H](Cc1c[nH]c2ccccc12)NC(=O)[C@H](CS)NC(=O)[C@@H]1CCCN1C(=O)[C@@H]1CCCN1C(=O)[C@H](CCC(=O)O)NC(=O)[C@H](CO)NC(=O)[C@H](CO)NC(=O)[C@H](Cc1c[nH]cn1)NC(=O)[C@H](CCC(=O)O)NC(=O)[C@H](C)NC(=O)[C@H](Cc1ccccc1)NC(=O)CNC(=O)[C@H](CCCNC(=N)N)NC(=O)[C@H](CO)NC(=O)[C@@H]1CCCN1C(=O)[C@H](CO)NC(=O)[C@H](CC(C)C)NC(C)=O)C(C)C)[C@@H](C)O)C(=O)N[C@@H](CC(C)C)C(=O)N[C@@H](CC(C)C)C(=O)N[C@@H](CCC(=O)O)C(=O)N[C@@H](CC(N)=O)C(=O)N[C@@H](CCC(=O)O)C(=O)N[C@@H](CC(C)C)C(=O)N[C@@H](Cc1c[nH]c2ccccc12)C(=O)NCC(N)=O` [N-Myc 61-89S76C/E80C red] (Ac-LSPSRGFAEHSSEPPCWVTCMLLENELWG-NH2), for which, in data set [1], the “MRE222” value is given as -2428 ± 25 deg cm^−1 dmol^−1 res^−1 and the “% Helicity (estimated)” value was 7 ± 1%. This compound came in with an IC50 in data set [2] (SD) of 140 ± 18 µM.

As for `CSCC[C@H](NC(=O)[C@H](CCC(=O)O)NC(=O)[C@H](CS)NC(=O)[C@@H](NC(=O)[C@H](Cc1c[nH]c2ccccc12)NC(=O)[C@H](CO)NC(=O)[C@@H]1CCCN1C(=O)[C@@H]1CCCN1C(=O)[C@H](CCC(=O)O)NC(=O)[C@H](CO)NC(=O)[C@H](CO)NC(=O)[C@H](Cc1c[nH]cn1)NC(=O)[C@H](CCC(=O)O)NC(=O)[C@H](C)NC(=O)[C@H](Cc1ccccc1)NC(=O)CNC(=O)[C@H](CCCNC(=N)N)NC(=O)[C@H](CO)NC(=O)[C@@H]1CCCN1C(=O)[C@H](CO)NC(=O)[C@H](CC(C)C)NC(C)=O)C(C)C)C(=O)N[C@@H](CC(C)C)C(=O)N[C@@H](CS)C(=O)N[C@@H](CCC(=O)O)C(=O)N[C@@H](CC(N)=O)C(=O)N[C@@H](CCC(=O)O)C(=O)N[C@@H](CC(C)C)C(=O)N[C@@H](Cc1c[nH]c2ccccc12)C(=O)NCC(N)=O` [N-Myc 61-89 T79C/L83C red] (Ac-LSPSRGFAEHSSEPPSWVCEMLCENELWG-NH2), in data set [1], the “MRE222” value is recorded as -1907 ± 23 deg cm^−1 dmol^−1 res^−1 and the “% Helicity (estimated)” value is listed as 6 ± 1%. Also, the IC50 in data set [2] (SD) was 152 ± 15 µM.

Turning to `CSCC[C@H](NC(=O)[C@H](CCC(=O)O)NC(=O)[C@@H](NC(=O)[C@@H](NC(=O)[C@H](Cc1c[nH]c2ccccc12)NC(=O)[C@H](CO)NC(=O)[C@@H]1CCCN1C(=O)[C@@H]1CCCN1C(=O)[C@H](CCC(=O)O)NC(=O)[C@H](CO)NC(=O)[C@H](CO)NC(=O)[C@H](Cc1c[nH]cn1)NC(=O)[C@H](CCC(=O)O)NC(=O)[C@H](C)NC(=O)[C@H](Cc1ccccc1)NC(=O)CNC(=O)[C@H](CCCNC(=N)N)NC(=O)[C@H](CO)NC(=O)[C@@H]1CCCN1C(=O)[C@H](CO)NC(=O)[C@H](CC(C)C)NC(C)=O)C(C)C)[C@@H](C)O)C(=O)N[C@@H](CC(C)C)C(=O)N[C@@H](CS)C(=O)N[C@@H](CCC(=O)O)C(=O)N[C@@H](CC(N)=O)C(=O)N[C@@H](CCC(=O)O)C(=O)N[C@@H](CS)C(=O)N[C@@H](Cc1c[nH]c2ccccc12)C(=O)NCC(N)=O` [N-Myc 61-89L83C/L87C red] (Ac-LSPSRGFAEHSSEPPSWVTEMLCENECWG-NH2), in data set [1], the “MRE222” value was -1746 ± 74 deg cm^−1 dmol^−1 res^−1 and the “% Helicity (estimated)” value is 6 ± 1%. The IC50 in data set [2] (SD) was determined as 181 ± 9 µM.
